Measurements published in patent US12077503B2, “Substituted cyclic amides and their use as herbicides” (FMC CORPORATION, priority 2015, dated 2024).

How the values were obtained:
Assay type in all cases: in vivo
[1] = tested on: barnyardgrass (Echinochloa crus-galli); assay: Test B flooded paddy test; settings: Flood, 250 g ai/ha; 0 to 100 scale where 0 is no effect and 100 is complete control; 13 to 15 d
Method in brief: (§1)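 Visual ratings (0 none to 100 complete control) are relative to untreated plants, taken 13–15 d after treatment in a greenhouse. Test material went straight into floodwater standing 3 cm above the soil, kept constant, on plants at the 2-leaf stage.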

[2] = tested on: sedge, umbrella (small-flower umbrella sedge, Cyperus difformis); assay: Test B flooded paddy test; settings: Flood, 250 g ai/ha; 0 to 100 scale where 0 is no effect and 100 is complete control; 13 to 15 d
Method in brief: as §1

rice (Oryra sativa) = assay: Test B flooded paddy test; settings: Flood, 250 g ai/ha; 0 to 100 scale where 0 is no effect and 100 is complete control; 13 to 15 d
Method in brief: as §1

[3] = tested on: ducksalad (Heteranthera limosa); assay: Test B flooded paddy test; settings: Flood, 250 g ai/ha; 0 to 100 scale where 0 is no effect and 100 is complete control; 13 to 15 d
Method in brief: as §1

[4] = tested on: wheat (Triticum aestivum); assay: Test A postemergence; settings: for Wheat plant response rating: 125 g ai/ha, visual injury rating on 0 to 100 scale (0 no effect, 100 complete control), approx. 10 d; for Plant response rating, Wheat: 500 g ai/ha
Method in brief: (§2)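 Each rating is a visual injury score from 0 to 100 given about 10 d after treatment, judged against untreated controls kept alongside in the greenhouse. In loam soil–sand blend, seeds got a preemergence directed soil spray, while postemergence plants were 2 to 10 cm tall at spraying.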

[5] = tested on: giant foxtail (Setaria faberii); assay: Test A postemergence; settings: for Foxtail, Giant plant response rating: 125 g ai/ha, visual injury rating on 0 to 100 scale (0 no effect, 100 complete control), approx. 10 d; for Plant response rating, Foxtail, Giant: 500 g ai/ha
Method in brief: as §2

[6] = tested on: barnyardgrass (Echinochloa crus-galli); assay: Test A postemergence; settings: postemergence; for Barnyardgrass plant response rating: 125 g ai/ha, visual injury rating on 0 to 100 scale (0 no effect, 100 complete control), approx. 10 d; for Plant response rating, Barnyardgrass: 500 g ai/ha, 0 to 100 scale, 0 no effect, 100 complete control
Method in brief: as §2

corn (Zea mays) = assay: Test A postemergence; settings: postemergence; for Corn plant response rating: 125 g ai/ha, visual injury rating on 0 to 100 scale (0 no effect, 100 complete control), approx. 10 d; for Plant response rating, Corn: 500 g ai/ha, 0 to 100 scale, 0 no effect, 100 complete control
Method in brief: as §2

[7] = tested on: Galium (catchweed bedstraw, Galium aparine); assay: Test A postemergence; settings: for Galium plant response rating: 125 g ai/ha, visual injury rating on 0 to 100 scale (0 no effect, 100 complete control), approx. 10 d; for Plant response rating, Galium: 500 g ai/ha
Method in brief: as §2

[8] = tested on: ragweed (common ragweed, Ambrosia elatior); assay: Test A postemergence; settings: for Ragweed plant response rating: 125 g ai/ha, visual injury rating on 0 to 100 scale (0 no effect, 100 complete control), approx. 10 d; for Plant response rating, Ragweed: 500 g ai/ha
Method in brief: as §2

[9] = tested on: blackgrass (Alopecurus myosuroides); assay: Test A postemergence; settings: postemergence; for Blackgrass plant response rating: 125 g ai/ha, visual injury rating on 0 to 100 scale (0 no effect, 100 complete control), approx. 10 d; for Plant response rating, Blackgrass: 500 g ai/ha, 0 to 100 scale, 0 no effect, 100 complete control
Method in brief: as §2

[10] = tested on: ryegrass, Italian (Italian ryegrass, Lolium multiflorum); assay: Test A postemergence; settings: for Ryegrass, Italian plant response rating: 125 g ai/ha, visual injury rating on 0 to 100 scale (0 no effect, 100 complete control), approx. 10 d; for Plant response rating, Ryegrass, Italian: 500 g ai/ha
Method in brief: as §2

[11] = tested on: pigweed (Amaranthus retroflexus); assay: Test A postemergence; settings: for Pigweed plant response rating: 125 g ai/ha, visual injury rating on 0 to 100 scale (0 no effect, 100 complete control), approx. 10 d; for Plant response rating, Pigweed: 500 g ai/ha
Method in brief: as §2

Kochia (Kochia scoparia) [12] = assay: Test A postemergence; settings: for Kochia plant response rating: 125 g ai/ha, visual injury rating on 0 to 100 scale (0 no effect, 100 complete control), approx. 10 d; for Plant response rating, Kochia: 500 g ai/ha
Method in brief: as §2

[13] = tested on: giant foxtail (Setaria faberii); assay: Test A preemergence; settings: for Plant response rating, Foxtail, Giant: 125 g ai/ha, preemergence, 0 to 100 scale (0 no effect, 100 complete control); for Foxtail, Giant plant response rating (0 to 100 scale, 0 is no effect, 100 is complete control): Preemergence, 500 g ai/ha, visual injury approx. 10 d
Method in brief: as §2

[14] = tested on: barnyardgrass (Echinochloa crus-galli); assay: Test A preemergence; settings: for Plant response rating, Barnyardgrass: 125 g ai/ha, preemergence, 0 to 100 scale (0 no effect, 100 complete control); for Barnyardgrass plant response rating (0 to 100 scale, 0 is no effect, 100 is complete control): Preemergence, 500 g ai/ha, visual injury approx. 10 d
Method in brief: as §2

[15] = tested on: ragweed (common ragweed, Ambrosia elatior); assay: Test A preemergence; settings: for Plant response rating, Ragweed: 125 g ai/ha; for Ragweed plant response rating (0 to 100 scale, 0 is no effect, 100 is complete control): 500 g ai/ha, visual injury approx. 10 d
Method in brief: as §2

[16] = tested on: ryegrass, Italian (Italian ryegrass, Lolium multiflorum); assay: Test A preemergence; settings: for Plant response rating, Ryegrass, Italian: 125 g ai/ha; for Ryegrass, Italian plant response rating (0 to 100 scale, 0 is no effect, 100 is complete control): 500 g ai/ha, visual injury approx. 10 d
Method in brief: as §2

[17] = tested on: pigweed (Amaranthus retroflexus); assay: Test A preemergence; settings: for Plant response rating, Pigweed: 125 g ai/ha; for Pigweed plant response rating (0 to 100 scale, 0 is no effect, 100 is complete control): 500 g ai/ha, visual injury approx. 10 d
Kochia (Kochia scoparia) [18] = assay: Test A preemergence; settings: for Plant response rating, Kochia: 125 g ai/ha, preemergence, 0 to 100 scale (0 no effect, 100 complete control); for Kochia plant response rating (0 to 100 scale, 0 is no effect, 100 is complete control): Preemergence, 500 g ai/ha, visual injury approx. 10 d
Method in brief: as §2

[19] = postemergence, 0 to 100 scale, 0 no effect, 100 complete control
[20] = preemergence, 0 to 100 scale (0 no effect, 100 complete control)
[21] = Postemergence, 0 to 100 scale where 0 is no effect and 100 is complete control
[22] = Preemergence, visual injury after approximately 10 d, 0 to 100 scale where 0 is no effect and 100 is complete control

| Compound | Plant response rating, Barnyardgrass [1] | Plant response rating, Sedge, Umbrella [2] | Plant response rating, Rice (rice (Oryra sativa)) | Plant response rating, Ducksalad [3] | Wheat plant response rating ([4]; postemergence) | Foxtail, Giant plant response rating ([5]; postemergence) | Barnyardgrass plant response rating [6] | Plant response rating, Barnyardgrass [6] | Corn plant response rating (corn (Zea mays)) | Plant response rating, Corn (corn (Zea mays)) | Galium plant response rating ([7]; postemergence) | Ragweed plant response rating ([8]; postemergence) | Blackgrass plant response rating [9] | Plant response rating, Blackgrass [9] | Ryegrass, Italian plant response rating ([10]; postemergence) | Pigweed plant response rating ([11]; postemergence) | Kochia plant response rating (Kochia (Kochia scoparia) [12]; postemergence) | Plant response rating, Foxtail, Giant [13] | Foxtail, Giant plant response rating (0 to 100 scale, 0 is no effect, 100 is complete control) [13] | Plant response rating, Barnyardgrass [14] | also measured |
| --- | --- | --- | --- | --- | --- | --- | --- | --- | --- | --- | --- | --- | --- | --- | --- | --- | --- | --- | --- | --- | --- |
| O=C(Nc1ccccc1F)C1C(=O)N(c2ccccc2)CC1c1cccc(C(F)(F)F)c1 (stereo not drawn) [Compound 456] | 0 | 0 | 0 | 0 | 0 | 0 | 0 | 0 | 0 | 0 | 0 | 0 | 0 | 0 | 0 | 0 | 0 | 0 | 0 | 0 | Plant response rating, Wheat [4, 19]: 0; Plant response rating, Foxtail, Giant [5, 19]: 0; Plant response rating, Galium [7, 19]: 0; Plant response rating, Ragweed [8, 19]: 0; Plant response rating, Ryegrass, Italian [10, 19]: 0; Plant response rating, Pigweed [11, 19]: 0; Plant response rating, Kochia (Kochia (Kochia scoparia) [12]; [19]): 0; Barnyardgrass plant response rating (0 to 100 scale, 0 is no effect, 100 is complete control) [14]: 0; Plant response rating, Ragweed [15, 20]: 0; Ragweed plant response rating (0 to 100 scale, 0 is no effect, 100 is complete control) ([15]; Preemergence): 0; Plant response rating, Ryegrass, Italian [16, 20]: 0; Ryegrass, Italian plant response rating (0 to 100 scale, 0 is no effect, 100 is complete control) ([16]; Preemergence): 0; Plant response rating, Pigweed [17, 20]: 0; Pigweed plant response rating (0 to 100 scale, 0 is no effect, 100 is complete control) ([17]; Preemergence): 0; Plant response rating, Kochia (Kochia (Kochia scoparia) [18]): 0; Kochia plant response rating (0 to 100 scale, 0 is no effect, 100 is complete control) (Kochia (Kochia scoparia) [18]): 0 |
| CC(C)c1ccc(C2CNC(=O)C2C(=O)Nc2ccccc2F)cc1 (stereo not drawn) [Compound 469] | 40 | 0 | 0 | 70 | 0 | 20 | 70 | 80 | 0 | 0 | 0 | 0 | 0 | 40 | 0 | 0 | 0 | 80 | 90 | 80 | Plant response rating, Wheat [4, 21]: 0; Plant response rating, Foxtail, Giant [5, 21]: 60; Plant response rating, Galium [7, 21]: 0; Plant response rating, Ragweed [8, 21]: 0; Plant response rating, Ryegrass, Italian [10, 21]: 20; Plant response rating, Pigweed [11, 21]: 0; Plant response rating, Kochia (Kochia (Kochia scoparia) [12]; [21]): 0; Barnyardgrass plant response rating (0 to 100 scale, 0 is no effect, 100 is complete control) [14]: 90; Plant response rating, Ragweed [15, 22]: 0; Ragweed plant response rating (0 to 100 scale, 0 is no effect, 100 is complete control) ([15]; Preemergence): 0; Plant response rating, Ryegrass, Italian [16, 22]: 0; Ryegrass, Italian plant response rating (0 to 100 scale, 0 is no effect, 100 is complete control) ([16]; Preemergence): 0; Plant response rating, Pigweed [17, 22]: 0; Pigweed plant response rating (0 to 100 scale, 0 is no effect, 100 is complete control) ([17]; Preemergence): 0; Plant response rating, Kochia (Kochia (Kochia scoparia) [18]): 0; Kochia plant response rating (0 to 100 scale, 0 is no effect, 100 is complete control) (Kochia (Kochia scoparia) [18]): 0 |
